Structures can show the parent of a compound that is named as a salt. Active and inactive are the calls of the source.
What was measured:
HEK293 = assay: Fluorescence-based counterscreen for potentiators or agonists of NPY-Y2: cell-based high-throughput dose response assay to identify inhibitors of cyclic nucleotide gated ion channel (CNGC) activity. In this assay, the parental HEK293 cell line transfected with a cyclic-nucleotide gated ion channel (CNGC)-based cAMP sensor is used to measure inhibition of isoproterenol-induced CNGC activity by test compound.; format: functional; details: Homo sapiens;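 further: stimulus is 1 µM isoproterenol at EC100 plus PDE inhibitor Ro 20-1724 at 25 µM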
Heat shock protein HSP90 = Heat shock protein HSP90 (Homo sapiens, UniProt P07900+P08238); assay: Hsp90 blockade concentration-response – dose response (AID 712); format: functional
[1] = biological target: T1, RNA-binding protein pos-1 (Caenorhabditis elegans, UniProt G5EF15); assay: disruptors of C. elegans POS-1 RNA interaction – biochemical, fluorescence polarization, dose response (AID 1964);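 further: purified POS-1 fused to maltose binding protein made in E. coli; potency of compounds blocking POS-1 binding to fluorescent RNA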
T1 sequence (G5EF15 whole entry): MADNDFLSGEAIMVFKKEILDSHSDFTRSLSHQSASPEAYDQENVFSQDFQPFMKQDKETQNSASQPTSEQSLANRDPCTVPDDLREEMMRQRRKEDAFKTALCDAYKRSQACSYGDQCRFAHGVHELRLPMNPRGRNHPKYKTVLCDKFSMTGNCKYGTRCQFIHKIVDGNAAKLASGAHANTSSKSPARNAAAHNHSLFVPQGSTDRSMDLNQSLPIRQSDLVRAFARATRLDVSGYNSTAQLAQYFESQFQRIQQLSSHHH

14-3-3 protein gamma = biological target: T2, 14-3-3 protein gamma (Homo sapiens, UniProt P61981); assay: modulators of 14-3-3 gamma client binding – dose response (AID 711); format: functional
T2 sequence (P61981 whole entry): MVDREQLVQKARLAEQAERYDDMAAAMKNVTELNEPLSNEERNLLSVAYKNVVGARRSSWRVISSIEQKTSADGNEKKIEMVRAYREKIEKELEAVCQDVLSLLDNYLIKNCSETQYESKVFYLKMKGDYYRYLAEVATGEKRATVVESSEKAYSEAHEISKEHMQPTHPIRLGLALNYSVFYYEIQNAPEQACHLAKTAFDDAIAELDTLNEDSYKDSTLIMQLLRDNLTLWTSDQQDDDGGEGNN

Troponin, cardiac muscle = Troponin, cardiac muscle (Homo sapiens, UniProt P19429+P45379+P63316); assay: Fluorescence-based biochemical high throughput dose response assay for activators of the calcium sensitivity of cardiac Regulated Thin Filaments (RTF). [Related pubchem assays (depositor defined):AID493008, AID493018, AID504382, AID504383]; format: protein-complex assay
[2] = biological target: T3, Endoribonuclease toxin MazF (Escherichia coli K-12, UniProt P0AE70); assay: activation of MazEF endoribonuclease cleavage – biochemical, fluorescence, single-stranded RNA substrate, uHTS hits, dose response (AID 588481); format: functional
T3 sequence (P0AE70 whole entry): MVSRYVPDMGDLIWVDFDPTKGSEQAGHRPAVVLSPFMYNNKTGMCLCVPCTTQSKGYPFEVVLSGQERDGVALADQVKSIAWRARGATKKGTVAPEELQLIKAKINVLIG

[3] = biological target: UDP-galactopyranose mutase (Mycobacterium tuberculosis, UniProt P9WIQ1); assay: Inhibitors of Mycobacterium tuberculosis UDP-galactopyranose mutase (UGM) enzyme Measured in Biochemical System Using Plate Reader - 2105-02_Inhibitor_Dose_CherryPick_Activity. [Related pubchem assays (depositor defined):AID504439]
Chain of UDP-galactopyranose mutase (P9WIQ1 whole entry): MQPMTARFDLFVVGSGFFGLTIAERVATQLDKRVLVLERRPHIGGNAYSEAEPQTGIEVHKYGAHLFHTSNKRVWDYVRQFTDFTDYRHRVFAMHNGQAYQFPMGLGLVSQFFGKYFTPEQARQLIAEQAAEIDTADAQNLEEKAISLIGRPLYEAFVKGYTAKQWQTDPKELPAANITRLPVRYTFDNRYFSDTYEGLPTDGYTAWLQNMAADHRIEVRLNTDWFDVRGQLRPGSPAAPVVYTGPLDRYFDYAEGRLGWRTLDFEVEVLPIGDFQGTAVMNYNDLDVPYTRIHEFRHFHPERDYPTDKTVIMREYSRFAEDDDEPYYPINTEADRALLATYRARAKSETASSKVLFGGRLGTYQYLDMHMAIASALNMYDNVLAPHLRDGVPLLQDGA

[4] = biological target: T3, Endoribonuclease toxin MazF; assay: substrate-only fluorescence increase artefacts – biochemical, single-stranded RNase substrate, counter-screen for MazEF activator project, dose response (AID 588502); format: functional
[5] = biological target: T4, Corticotropin-releasing factor receptor 2/Corticotropin-releasing factor-binding protein (Homo sapiens, UniProt P24387+Q13324); assay: activators of CRF receptor 2 with binding protein – uHTS hits, confirmation (AID 602473); format: functional; details: read-out: EC50_Mean
T4 sequence (Q13324 whole entry): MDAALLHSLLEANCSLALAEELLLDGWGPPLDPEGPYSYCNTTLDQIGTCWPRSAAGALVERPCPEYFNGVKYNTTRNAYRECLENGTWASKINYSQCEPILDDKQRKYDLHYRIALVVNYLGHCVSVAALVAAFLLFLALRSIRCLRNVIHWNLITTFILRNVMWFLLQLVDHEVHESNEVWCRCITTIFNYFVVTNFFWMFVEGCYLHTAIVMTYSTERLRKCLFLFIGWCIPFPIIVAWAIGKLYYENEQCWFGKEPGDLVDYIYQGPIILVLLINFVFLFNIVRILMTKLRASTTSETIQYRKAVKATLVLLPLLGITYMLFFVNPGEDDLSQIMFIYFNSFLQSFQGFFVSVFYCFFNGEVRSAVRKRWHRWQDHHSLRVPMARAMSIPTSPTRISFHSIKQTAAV
T4 sequence (P24387 whole entry): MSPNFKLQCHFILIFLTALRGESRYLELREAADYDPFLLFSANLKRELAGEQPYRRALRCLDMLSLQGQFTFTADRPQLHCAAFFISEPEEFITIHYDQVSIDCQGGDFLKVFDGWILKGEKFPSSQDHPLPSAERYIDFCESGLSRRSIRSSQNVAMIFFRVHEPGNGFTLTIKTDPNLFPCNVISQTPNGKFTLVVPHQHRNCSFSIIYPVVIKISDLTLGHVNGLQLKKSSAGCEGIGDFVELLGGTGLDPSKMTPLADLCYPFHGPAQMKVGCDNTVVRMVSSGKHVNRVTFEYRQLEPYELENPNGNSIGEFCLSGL

[6] = biological target: T5, Heat shock factor protein 1 (Mus musculus, UniProt P38532); assay: decrease of HSF1-responsive luciferase luminescence – cell-based, NIH3T3, dose retest, confirmation (AID 2382); format: functional;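 further: NIH3T3 fibroblasts with HSF1-driven luciferase reporter stressed by proteasome inhibitor MG132; luminescence from HSF1-driven luciferase expression after 8 hours of MG132 stress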
T5 sequence (P38532 whole entry): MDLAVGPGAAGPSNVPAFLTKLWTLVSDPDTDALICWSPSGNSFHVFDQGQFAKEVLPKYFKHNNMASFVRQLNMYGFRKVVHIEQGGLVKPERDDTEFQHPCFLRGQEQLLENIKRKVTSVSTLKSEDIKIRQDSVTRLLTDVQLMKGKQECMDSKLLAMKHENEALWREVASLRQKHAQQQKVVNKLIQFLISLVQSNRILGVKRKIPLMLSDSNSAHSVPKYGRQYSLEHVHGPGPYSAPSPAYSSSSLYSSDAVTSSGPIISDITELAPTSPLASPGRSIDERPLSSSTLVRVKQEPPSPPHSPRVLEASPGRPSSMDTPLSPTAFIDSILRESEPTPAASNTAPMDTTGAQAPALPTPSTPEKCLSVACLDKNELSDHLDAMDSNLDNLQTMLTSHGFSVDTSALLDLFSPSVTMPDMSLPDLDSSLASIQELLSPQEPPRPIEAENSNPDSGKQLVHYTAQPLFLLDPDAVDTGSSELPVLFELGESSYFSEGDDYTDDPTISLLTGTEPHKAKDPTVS

[7] = biological target: Solute carrier family 12 member 2/member 5 (Homo sapiens, UniProt P55011+Q9H2X9); assay: KCC2 and NKCC1 inhibition by rubidium flux, cell-based, NKCC1 counter-screen (AID 1734); format: functional, HEK293
Bcl-2-related protein A1 [8] = biological target: T6, Bcl-2-related protein A1 (Mus musculus, UniProt Q07440); assay: displacement of Bid BH3 peptide from Bfl-1 – biochemical, fluorescence polarization, FITC-Bid, mouse, primary screen (AID 432)
T6 sequence (Q07440 whole entry): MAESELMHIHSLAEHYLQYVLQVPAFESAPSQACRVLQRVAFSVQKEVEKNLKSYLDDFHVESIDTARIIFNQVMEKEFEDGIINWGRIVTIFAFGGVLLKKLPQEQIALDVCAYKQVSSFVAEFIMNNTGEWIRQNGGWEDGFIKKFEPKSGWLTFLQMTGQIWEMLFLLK

Bcl-2-related protein A1 [9] = biological target: T6, Bcl-2-related protein A1; assay: small-molecule antagonists of Bfl-1/BH3 interaction – biochemical, TR-FRET, mouse Bfl-1, confirmation (AID 621);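 further: TR-FRET binding of GST-Bfl-1 to FITC-labelled Bid peptide via terbium antibody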
[10] = biological target: T7, Sentrin-specific protease 1 (Homo sapiens, UniProt Q9P0U3); assay: SENP1 catalytic domain blockers, concentration series – biochemical, kinetic FRET, dose response (AID 651697); format: functional; details: read-out: IC50_Mean
T7 sequence (Q9P0U3 whole entry): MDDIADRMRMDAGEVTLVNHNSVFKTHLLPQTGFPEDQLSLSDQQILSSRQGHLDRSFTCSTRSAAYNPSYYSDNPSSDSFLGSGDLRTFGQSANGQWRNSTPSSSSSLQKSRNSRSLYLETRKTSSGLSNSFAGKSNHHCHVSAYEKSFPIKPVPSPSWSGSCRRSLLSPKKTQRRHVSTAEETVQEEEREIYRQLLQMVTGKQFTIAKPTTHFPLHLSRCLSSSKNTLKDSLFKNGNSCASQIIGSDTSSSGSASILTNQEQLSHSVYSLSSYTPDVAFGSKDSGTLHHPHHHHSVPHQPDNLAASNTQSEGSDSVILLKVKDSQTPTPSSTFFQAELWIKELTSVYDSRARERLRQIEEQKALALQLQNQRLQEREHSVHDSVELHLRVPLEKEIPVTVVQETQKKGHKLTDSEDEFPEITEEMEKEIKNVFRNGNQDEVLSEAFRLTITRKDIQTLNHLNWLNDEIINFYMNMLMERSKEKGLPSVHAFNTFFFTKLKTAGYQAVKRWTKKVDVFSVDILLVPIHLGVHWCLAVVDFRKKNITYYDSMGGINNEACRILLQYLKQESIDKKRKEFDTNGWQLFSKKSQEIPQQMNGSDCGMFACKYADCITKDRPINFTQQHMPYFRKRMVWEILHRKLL

[11] = biological target: T7, Sentrin-specific protease 1; assay: Dose response confirmation of small molecule inhibitors of the catalytic domain of the SUMO protease, SENP1 in a FRET assay.; format: functional; details: read-out: IC50_Mean

COCCc1ccc(OCC(O)CNC(C)C)cc1 (stereo not given) [METOPROLOL TARTRATE]
EC50 (HEK293): 2.99 µM (active)

CN(C)c1ccc(/N=C/c2nc(-c3ccccc3)oc2O)cc1
IC50 (Heat shock protein HSP90): 27.302 µM | EC50 [1]: 5.7 µM (active) | IC50 (14-3-3 protein gamma): 9.68 µM (active) | EC50 (Troponin, cardiac muscle): 3.71 µM (active) | EC50 [2]: 46.7 µM (inactive) | AC50 [3]: 68.2 µM (active) | EC50 [4]: 56.6 µM (inactive) | EC50 [5]: 7.96 µM (active)

Cc1csc(NC(=O)CSc2ccc(-c3ccccc3)nn2)n1
EC50 [6]: > 195 µM (not active) | IC50 [7]: 0.56 µM (active)

Nc1ccc(C2CCCc3nonc32)c2nonc12 (stereo not given)
IC50 (Bcl-2-related protein A1 [8]): > 100 µM (not active) | IC50 (Bcl-2-related protein A1 [9]): > 100 µM (not active) | IC50 [10]: 42 µM (inactive) | IC50 [11]: 39.4 µM (inactive)
